{
  "source": "ChEMBL document CHEMBL5036353",
  "about": "“Discovery of Pyrazolo[3,4-d]pyridazinone Derivatives as Selective DDR1 Inhibitors via Deep Learning Based Design, Synthesis, and Biological Evaluation” (J Med Chem, 2022)",
  "key": {"Macrophage [1]": {"tested_on": "Macrophage", "assay": "Antiinflammatory activity against mouse primary bone marrow derived macrophages assessed as inhibition of LPS-induced IL-6 expression by ELISA", "assay_type": "functional, tissue-based", "settings": "dose 10.0 µM"}, "Macrophage [2]": {"tested_on": "Macrophage", "assay": "Antiinflammatory activity against mouse primary bone marrow derived macrophages assessed as inhibition of LPS-induced IL-1beta expression at 10 uM by ELISA", "assay_type": "functional, tissue-based"}, "Macrophage [3]": {"tested_on": "Macrophage", "assay": "Antiinflammatory activity against mouse primary bone marrow derived macrophages assessed as inhibition of LPS-induced TNF expression at 10 uM by ELISA", "assay_type": "functional, tissue-based"}, "THP-1 [4]": {"tested_on": "THP-1", "assay": "Antiinflammatory activity against human THP-1 derived macrophages assessed as inhibition of LPS-induced IL6 expression by ELISA", "assay_type": "functional, cell-based", "settings": "dose 10.0 µM"}, "THP-1 [5]": {"tested_on": "THP-1", "assay": "Antiinflammatory activity against human THP-1 derived macrophage assessed as inhibition of LPS-induced IL-1beta expression at 10 uM by ELISA", "assay_type": "functional, cell-based"}, "THP-1 [6]": {"tested_on": "THP-1", "assay": "Antiinflammatory activity against human THP-1 derived macrophage assessed as inhibition of LPS-induced TNF expression at 10 uM by ELISA", "assay_type": "functional, cell-based"}, "Mus musculus [7]": {"tested_on": "Mus musculus", "assay": "Anti-colitis activity against DSS-induced IBD C57BL/6 mouse model assessed as improvement in DSS induced weight loss at 5 to 10 mg/kg, po administered daily and measured after 5 to 8 days", "assay_type": "functional, organism-based", "settings": "dose 5-10 mg/kg, time 5-8 day"}, "Mus musculus [8]": {"tested_on": "Mus musculus", "assay": "Anti-colitis activity against DSS-induced IBD C57BL/6 mouse model assessed as reduction in fecal occult blood score at 5 to 10 mg/kg, po administered daily and measured after 9 days", "assay_type": "functional, organism-based", "settings": "dose 5-10 mg/kg, time 9.0 day"}, "Mus musculus [9]": {"tested_on": "Mus musculus", "assay": "Anti-colitis activity against DSS-induced IBD C57BL/6 mouse model assessed as improvement in DSS reduced colon length at 5 to 10 mg/kg, po administered daily and measured after 9 days", "assay_type": "functional, organism-based", "settings": "dose 5-10 mg/kg, time 9.0 day"}, "Mus musculus [10]": {"tested_on": "Mus musculus", "assay": "Anti-colitis activity against DSS-induced IBD C57BL/6 mouse model assessed as reduction in IL-6 transcription level in colon at 5 to 10 mg/kg, po administered daily by RT-qPCR analysis", "assay_type": "functional, organism-based", "settings": "dose 5-10 mg/kg"}, "Mus musculus [11]": {"tested_on": "Mus musculus", "assay": "Anti-colitis activity against DSS-induced IBD C57BL/6 mouse model assessed as reduction in IL-1beta transcription level in colon at 5 to 10 mg/kg, po administered daily by RT-qPCR analysis", "assay_type": "functional, organism-based", "settings": "dose 5-10 mg/kg"}, "Mus musculus [12]": {"tested_on": "Mus musculus", "assay": "Anti-colitis activity against DSS-induced IBD C57BL/6 mouse model assessed as reduction in TNF transcription level in colon at 5 to 10 mg/kg, po administered daily by RT-qPCR analysis", "assay_type": "functional, organism-based", "settings": "dose 5-10 mg/kg"}, "Mus musculus [13]": {"tested_on": "Mus musculus", "assay": "Anti-colitis activity against DSS-induced IBD C57BL/6 mouse model assessed as reduction in serum IL-6 expression at 5 to 10 mg/kg, po administered daily by ELISA", "assay_type": "functional, organism-based", "settings": "dose 5-10 mg/kg"}, "Mus musculus [14]": {"tested_on": "Mus musculus", "assay": "Anti-colitis activity against DSS-induced IBD C57BL/6 mouse model assessed as reduction in serum IL-1beta expression at 5 to 10 mg/kg, po administered daily by ELISA", "assay_type": "functional, organism-based", "settings": "dose 5-10 mg/kg"}, "Mus musculus [15]": {"tested_on": "Mus musculus", "assay": "Anti-colitis activity against DSS-induced IBD C57BL/6 mouse model assessed as reduction in serum TNF expression at 5 to 10 mg/kg, po administered daily by ELISA", "assay_type": "functional, organism-based", "settings": "dose 5-10 mg/kg"}, "[16]": {"target": "NT-3 growth factor receptor (Homo sapiens) (UniProt Q16288)", "sequence (Q16288 32-839 limits assumed)": "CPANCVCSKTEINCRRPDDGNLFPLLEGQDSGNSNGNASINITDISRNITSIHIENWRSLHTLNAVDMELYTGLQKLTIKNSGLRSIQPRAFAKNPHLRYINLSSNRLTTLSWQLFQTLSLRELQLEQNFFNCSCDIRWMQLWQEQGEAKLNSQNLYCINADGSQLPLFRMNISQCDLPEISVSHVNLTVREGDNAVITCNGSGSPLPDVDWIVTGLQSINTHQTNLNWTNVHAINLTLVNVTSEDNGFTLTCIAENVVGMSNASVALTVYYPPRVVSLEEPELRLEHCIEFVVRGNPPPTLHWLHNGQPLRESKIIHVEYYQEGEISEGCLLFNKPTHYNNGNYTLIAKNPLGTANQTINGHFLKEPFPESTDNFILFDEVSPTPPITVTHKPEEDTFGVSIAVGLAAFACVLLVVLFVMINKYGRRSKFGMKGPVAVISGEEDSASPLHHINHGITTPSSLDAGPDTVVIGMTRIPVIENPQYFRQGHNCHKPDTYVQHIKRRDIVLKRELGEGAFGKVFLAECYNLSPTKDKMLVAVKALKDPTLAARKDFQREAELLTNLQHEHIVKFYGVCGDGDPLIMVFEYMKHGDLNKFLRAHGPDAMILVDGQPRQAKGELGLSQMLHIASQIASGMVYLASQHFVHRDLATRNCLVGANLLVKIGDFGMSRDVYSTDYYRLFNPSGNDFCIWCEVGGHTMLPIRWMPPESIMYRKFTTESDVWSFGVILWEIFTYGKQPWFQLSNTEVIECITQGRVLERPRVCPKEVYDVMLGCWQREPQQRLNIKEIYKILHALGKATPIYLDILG", "assay": "Inhibition of recombinant human TRKC (510 to end residues) assessed as residual activity at 10 uM using GEEPLYWSFPAKKK as substrate incubated for 40 mins in presence of [gamma33P]ATP by scintillation counting based radiometry assay relative to control"}, "Mus musculus [17]": {"tested_on": "Mus musculus", "assay": "Anti-colitis activity against DSS-induced IBD C57BL/6 mouse model assessed as reduction in inflammatory cell infiltration in colon at 5 to 10 mg/kg, po administered daily measured after 9 days by HE staining based analysis", "assay_type": "functional, organism-based", "settings": "dose 5-10 mg/kg, time 9.0 day"}, "Mus musculus [18]": {"tested_on": "Mus musculus", "assay": "Anti-colitis activity against DSS-induced IBD C57BL/6 mouse model assessed as reduction in severe epithelial destruction in colon at 5 to 10 mg/kg, po administered daily measured after 9 days by HE staining based analysis", "assay_type": "functional, organism-based", "settings": "dose 5-10 mg/kg, time 9.0 day"}, "Mus musculus [19]": {"tested_on": "Mus musculus", "assay": "Anti-colitis activity against DSS-induced IBD C57BL/6 mouse model assessed as reduction in crypt loss in colon at 5 to 10 mg/kg, po administered daily measured after 9 days by HE staining based analysis", "assay_type": "functional, organism-based", "settings": "dose 5-10 mg/kg, time 9.0 day"}},
  "note": "The source made the active and inactive calls. The rule behind the calls is not given here.",
  "data": [
    {"smiles": "CC(=O)Nc1ccc(-n2nc3c(=O)[nH]nc(N)c3c2-c2oc3cc(C(=O)Nc4cccc(C(F)(F)F)c4)ccc3c2C)cc1", "values": [
      {"measurement": "Activity", "setting": "Macrophage [1]", "value": "Dose-Dependent Effect"},
      {"measurement": "Activity", "setting": "Macrophage [2]", "value": "Active"},
      {"measurement": "Activity", "setting": "Macrophage [3]", "value": "Active"},
      {"measurement": "Activity", "setting": "THP-1 [4]", "value": "Dose-Dependent Effect"},
      {"measurement": "Activity", "setting": "THP-1 [5]", "value": "Active"},
      {"measurement": "Activity", "setting": "THP-1 [6]", "value": "Active"},
      {"measurement": "Activity", "setting": "Mus musculus [7]", "value": "Active"},
      {"measurement": "Activity", "setting": "Mus musculus [8]", "value": "Active"},
      {"measurement": "Activity", "setting": "Mus musculus [9]", "value": "Active"},
      {"measurement": "Activity", "setting": "Mus musculus [10]", "value": "Active"},
      {"measurement": "Activity", "setting": "Mus musculus [11]", "value": "Active"},
      {"measurement": "Activity", "setting": "Mus musculus [12]", "value": "Active"},
      {"measurement": "Activity", "setting": "Mus musculus [13]", "value": "Active"},
      {"measurement": "Activity", "setting": "Mus musculus [14]", "value": "Active"},
      {"measurement": "Activity", "setting": "Mus musculus [15]", "value": "Active"},
      {"measurement": "Activity", "setting": "[16]", "value": 45, "unit": "%"},
      {"measurement": "Activity", "setting": "Mus musculus [17]", "value": "Active"},
      {"measurement": "Activity", "setting": "Mus musculus [18]", "value": "Active"},
      {"measurement": "Activity", "setting": "Mus musculus [19]", "value": "Active"}
    ]}
  ]
}
